Columns and labels:
His6-BRD4 (BD1) = biological target: T1, His6-BRD4 (BD1) (Homo sapiens, UniProt O60885); test: Surface plasmon resonance (SPR) single-dose screening; format: binding; design: key to SPR RESULT: Positive: compounds were considered as SPR hits also when their average signal was further than two standard deviations apart from the average signal of the blank samples (1% DMSO); conditions: for RUs at [10 µM]: SPR, compound 10 µM, 1% DMSO, n = 2, decimal comma; for SPR RESULT: single dose 10 µM, n = 2
T1 construct: A pET28 plasmid containing residues 44–168 of BRD4 (BD1), a 6xHis tag, a TEV protease cleavage site; made in house; host or cells: E. coli Rosetta (D3)

BRD4 (BD1) [1] = biological target: T2, BRD4 (BD1) (Homo sapiens, UniProt O60885); test: Differential scanning fluorimetry (DSF) single-dose thermal shift screening; format: binding; conditions: DSF, compound 10 µM, BRD4 (BD1) 2 µM, n = 3, decimal comma; read-out: ΔTm ºC at [10 µM]
T2 construct: A pET28 plasmid containing residues 44–168 of BRD4 (BD1), a 6xHis tag, a TEV protease cleavage site; 6xHis (N, cleaved yes); made in house; host or cells: E. coli Rosetta (D3)

BRD4 (BD1) [2] = biological target: T2, BRD4 (BD1); test: Competitive HTRF TR-FRET binding assay (displacement of acetylated histone H4 peptide); conditions: 16-point titration 0.1 nM to 10 µM, n = 2, Negative = curve could not be fitted to a sigmoidal curve; for IC50: read-out: TR-FRET IC50
Experimental: To further quantitatively characterize the DSF/SPR hits compounds obtained in the single-dose screenings, we selected HTRF TR-FRET. Specifically, we employed a competitive HTRF TR-FRET experiment to measure the compound’s capacity to displace an acetylated peptide from the binding site of BRD4 (BD1). For each molecule, a 16-point concentration curve was titrated against the peptide-BRD (BD1) complex and incubated for 1.5 h. A compound was considered a positive binder if we could fit its titration curve to a sigmoidal curve to determine its IC50. […] Compound screening was carried out in 384-well, white, round-bottom, small-volume plates (CORNING) in a final volume of 20 µL of 50 mM HEPES (pH 7.4), 50 mM NaCl, 400 mM KF, 0.5 mM CHAPS, and 0.05% BSA. […] Then, the labeled anti-His6-XL665 antibody (CisBio) (10 nM) was added to the mixture and incubated for 15 min, before the Eu3+ cryptate-conjugated streptavidin (2 nM) (CisBio) was added and incubated for 15 min. All incubations were performed at room temperature. […] Titration of (+)−JQ1 was used as a positive control for each experiment.

SMILES	RUs at [10 µM] (His6-BRD4 (BD1))	SPR RESULT (His6-BRD4 (BD1))	ΔTm at 10 µM (BRD4 (BD1) [1]) [°C]	TR-FRET IC50 (nM) (BRD4 (BD1) [2])	IC50 (BRD4 (BD1) [2]) [µM]
COC(C)CC(=O)N1CCC(C2(O)CCN(C(=O)c3sc4nnc(C)c(C)c4c3N)C2)CC1 (stereo not shown) [Compound 39, COC(C)CC(=O)N1CCC(CC1)C2(O)CCN(C2)C(=O)C=3SC=4N=NC(C)=C(C)C4C3N]	11,34 ± 6,3 RUs	Negative	1.12	–	0.0789
COc1ccc(-n2c(C)nnc2SCC(=O)NCc2cc(C)nc(C)c2)cc1 [Compound 44, COC=1C=CC(=CC1)N2C(C)=NN=C2SCC(=O)NCC=3C=C(C)N=C(C)C3]	17,34 ± 14,82 RUs	Negative	1.68	–	0.00583
COc1ccc(-n2c(C)nnc2SCC(=O)N2CC3(CCN(C)CC3)C2)cc1 [Compound 45, COC=1C=CC(=CC1)N2C(C)=NN=C2SCC(=O)N3CC4(C3)CCN(C)CC4]	9,8 ± 3,73 RUs	Negative	2.18	Negative	–
COc1ccc(-c2cc(NC(=O)C(=O)NC(C)c3nnc4ncccn34)ccc2OC)cc1 (stereo not shown) [Compound 47, COC=1C=CC(=CC1)C=2C=C(NC(=O)C(=O)NC(C)C3=NN=C4N=CC=CN34)C=CC2OC]	25,41 ± 18,52 RUs	Negative	1.25	–	0.256
COc1ccc(-n2c(C)nnc2SCC(=O)N(c2ccccc2)C2CC2)cc1 [Compound 48, COC=1C=CC(=CC1)N2C(C)=NN=C2SCC(=O)N(C3CC3)C=4C=CC=CC4]	4,63 ± 0,03 RUs	Negative	2.35	–	0.0532
COc1ccc(-n2c(C)nnc2SCC(=O)NC2CCC3(CNC3)C2)cc1 (stereo not shown) [Compound 49, COC=1C=CC(=CC1)N2C(C)=NN=C2SCC(=O)NC3CCC4(CNC4)C3]	17,72 ± 5,47 RUs	Negative	2.73	–	0.105
CNC(=O)c1ccc(-n2nc(Cn3cccn3)nc2-c2cn(C)c(=O)c3ccccc23)cc1 [Compound 50, CNC(=O)C=1C=CC(=CC1)N2N=C(CN3C=CC=N3)N=C2C4=CN(C)C(=O)C=5C=CC=CC45]	10,43 ± 9,29 RUs	Negative	2.29	–	1.13
CN(C)S(=O)(=O)c1ccc(-n2nc(-c3cccnc3)nc2-c2cn(C)c(=O)c3ccccc23)cc1 [Compound 51, CN(C)S(=O)(=O)C=1C=CC(=CC1)N2N=C(N=C2C3=CN(C)C(=O)C=4C=CC=CC34)C=5C=CC=NC5]	29,75 ± 5,31 RUs	Positive	3.61	–	0.0393
COc1ccc(-n2c(C)nnc2SCC(=O)NC2CCN(C(=O)c3cc(Cl)sc3Cl)CC2C)cc1 (stereo not shown) [Compound 52, COC=1C=CC(=CC1)N2C(C)=NN=C2SCC(=O)NC3CCN(CC3C)C(=O)C=4C=C(Cl)SC4Cl]	31,14 ± 2,8 RUs	Positive	-0.23	–	0.266

Now from value to compound, other results behind:

RUs at [10 µM] (His6-BRD4 (BD1))	SPR RESULT (His6-BRD4 (BD1))	ΔTm at 10 µM (BRD4 (BD1) [1]) [°C]	TR-FRET IC50 (nM) (BRD4 (BD1) [2])	SMILES	IC50 (BRD4 (BD1) [2]) [µM]
23,05 ± 1,41 RUs	Positive	0.86	–	CCn1nnc2cc(C(=O)N3CCCN(C(=O)c4ccccc4Cl)C(c4ccccc4)C3)ccc21 (stereo not shown) [Compound 34, CCN1N=NC=2C=C(C=CC12)C(=O)N3CCCN(C(C3)C=4C=CC=CC4)C(=O)C=5C=CC=CC5Cl]	1.21
13,78 ± 5,32 RUs	Negative	0.69	–	COc1cccc(-n2c(C)nnc2SCC(=O)N2CC3CCC2CN3C(=O)c2ccns2)c1 (stereo not shown) [Compound 35, COC=1C=CC=C(C1)N2C(C)=NN=C2SCC(=O)N3CC4CCC3CN4C(=O)C5=CC=NS5]	1.07
6,83 ± 2,31 RUs	Negative	0.34	Negative	CCn1nnc2cc(C(=O)N3CCC(N(C)C(=O)C4CN(C)CCO4)C3)ccc21 (stereo not shown) [Compound 36, CCN1N=NC=2C=C(C=CC12)C(=O)N3CCC(C3)N(C)C(=O)C4CN(C)CCO4]	–
12,42 ± 11,24 RUs	Negative	0.77	Negative	COc1cccc(-n2c(C)nnc2SCC(=O)N2CC(n3cc(-c4ccc(F)cn4)nn3)C2)c1 [Compound 37, COC=1C=CC=C(C1)N2C(C)=NN=C2SCC(=O)N3CC(C3)N4C=C(N=N4)C=5C=CC(F)=CN5]	–
30,29 ± 13,03 RUs	Negative	0.25	Negative	COc1ccc(CNc2ccc3ccn(C)c(=O)c3c2)cc1OCC(C)C [Compound 38, COC=1C=CC(CNC=2C=CC=3C=CN(C)C(=O)C3C2)=CC1OCC(C)C]	–
9,46 ± 0,53 RUs	Positive	1.13	–	CCCc1c(C(=O)N2CCOC(CNC(=O)c3cc(C)ccn3)C2)[nH]c(C)c1C(C)=O (stereo not shown) [Compound 40, CCCC1=C(NC(C)=C1C(=O)C)C(=O)N2CCOC(CNC(=O)C=3C=C(C)C=CN3)C2]	0.372
1,13 ± 7,64 RUs	Negative	1.7	Negative	Cc1nnnn1-c1cc(F)cc(C(=O)N2CCN(C(=O)C(=O)NCC3CC3)C(C(C)C)C2)c1 (stereo not shown) [Compound 41, CC(C)C1CN(CCN1C(=O)C(=O)NCC2CC2)C(=O)C=3C=C(F)C=C(C3)N4N=NN=C4C]	–
34,2 ± 10,95 RUs	Positive	1.04	–	Cn1cc(C(=O)Nc2ccc(OCc3cnccn3)cc2)c2ccccc2c1=O [Compound 42, CN1C=C(C(=O)NC=2C=CC(OCC=3C=NC=CN3)=CC2)C=4C=CC=CC4C1=O]	0.169
32,1 ± 9,99 RUs	Positive	1.99	–	COc1cccc(-n2c(C)nnc2SCC(=O)Nc2ccc(C(F)F)cc2)c1 [Compound 43, COC=1C=CC=C(C1)N2C(C)=NN=C2SCC(=O)NC=3C=CC(=CC3)C(F)F]	1.59
19,71 ± 0,01 RUs	Positive	2.47	–	CC(NS(=O)(=O)c1cccc(-c2nnnn2C)c1)C1CCN(Cc2ccccc2)C1 (stereo not shown) [Compound 46, CC(NS(=O)(=O)C=1C=CC=C(C1)C2=NN=NN2C)C3CCN(CC=4C=CC=CC4)C3]	0.24

— publication PMC12316891, “A bottom-up approach to find lead compounds in expansive chemical spaces” (Communications Chemistry, 2025)
